The text below walks through data of patent US5169838A, “Benzopyranone-β-D-thioxylosides and their use in therapy” (Fournier Industrie et Sante, priority 1989, dated 1992).

The experiment can be described thus: venous thrombosis (venous stasis under hypercoagulation with activated factor X, Wessler technique). The experiment is classed as in vivo, male Wistar rats. The note with it: po, administered orally, rat, thrombosis induced 4 hours after treatment, thrombus weighed. On the procedure: The study is performed on unfasted male Wistar rats weighing 250 to 280 g, divided up into groups of 10 animals each. The test products are administered orally as a suspension in PEG 400. A thrombosis is induced 4 hours after this treatment and the thrombus formed is removed and weighed.

Consider `CCc1cc(=O)c2ccc(O[C@@H]3SC[C@@H](O)[C@H](O)[C@H]3O)cc2o1` [Example 21, 2-ethyl-4-oxo-4H-1-benzopyran-7-yl 5-thio-β-D-xylopyranoside], for which the inhibition in vivo at 3 mg/kg is 70%. Then `O=c1cc(C(F)(F)F)c2ccc(S[C@@H]3SC[C@@H](O)[C@H](O)[C@H]3O)cc2o1` [Example 11, 4-trifluoromethyl-2-oxo-2H-1-benzopyran-7-yl 1,5-dithio-β-D-xylopyranoside], with 36%; and `CCCc1cc(=O)oc2cc(O[C@@H]3SC[C@@H](O)[C@H](O)[C@H]3O)ccc12` [Example 5, 2-oxo-4-propyl-2H-1-benzopyran-7-yl 5-thio-β-D-xylopyranoside], with 26%; and `Cc1cc(=O)c2ccc(O[C@@H]3SC[C@@H](O)[C@H](O)[C@H]3O)cc2o1` [Example 20, 2-methyl-4-oxo-4H-1-benzopyran-7-yl 5-thio-β-D-xylopyranoside], with 53%.

With `Cc1cc(=O)oc2cccc(O[C@@H]3SC[C@@H](O)[C@H](O)[C@H]3O)c12` [Example 6, 4-methyl-2-oxo-2H-1-benzopyran-5-yl 5-thio-β-D-xylopyranoside], 3 mg/kg produced 42% inhibition in vivo.

Compound `CCCc1cc(=O)oc2cc(S[C@@H]3SC[C@@H](O)[C@H](O)[C@H]3O)ccc12` [Example 14, 2-oxo-4-propyl-2H-1-benzopyran-7-yl 1,5-dithio-β-D-xylopyranoside] registered an inhibition in vivo at 3 mg/kg of 43%.

For `CC(=O)O[C@@H]1[C@@H](OC(C)=O)[C@H](OC(C)=O)CS[C@H]1Oc1ccc2c(C)c(Cl)c(=O)oc2c1` [Example 17a, 3-chloro-4-methyl-2-oxo-2H-1-benzopyran-7-yl 2,3,4-tri-O-acetyl-5-thio-β-D-xylopyranoside], the inhibition in vivo at 3 mg/kg is 67%. To `CCc1cc(=O)c2ccc(O[C@@H]3SC[C@@H](OC(C)=O)[C@H](OC(C)=O)[C@H]3OC(C)=O)cc2o1` [Example 21a, 2-ethyl-4-oxo-4H-1-benzopyran-7-yl 2,3,4-tri-O-acetyl-5-thio-β-D-xylopyranoside] belongs 42%; to `CC(=O)O[C@@H]1[C@@H](OC(C)=O)[C@H](OC(C)=O)CS[C@H]1Oc1ccc2c(C)c(-c3ccccc3)c(=O)oc2c1` [Example 18a, 4-methyl-2-oxo-3-phenyl-2H-1-benzopyran-7-yl 2,3,4-tri-O-acetyl-5-thio-β-D-xylopyranoside], 20%; to `Cc1cc(=O)oc2cccc(S[C@@H]3SC[C@@H](O)[C@H](O)[C@H]3O)c12` [Example 7, 4-methyl-2-oxo-2H-1-benzopyran-5-yl 1,5-dithio-β-D-xylopyranoside], 38%.

Turning to `Cc1oc2cc(S[C@@H]3SC[C@@H](O)[C@H](O)[C@H]3O)ccc2c(=O)c1C` [Example 26, 2,3-dimethyl-4-oxo-4H-1-benzopyran-7-yl 1,5-dithio-β-D-xylopyranoside], the inhibition in vivo at 3 mg/kg amounted to 27%.
